The text below walks through data of US8530493B2, “Indolopyridines as Eg5 kinesin modulators” (4SC AG, priority 2006, dated 2013).

Test [1] concerns RKO p27 or p21 induced (arrested) colon adenocarcinoma cells. Put plainly: Alamar Blue cell viability assay, RKO p27 or p21 induced (arrested). Format: cell-based. The following applies: Homo sapiens, RKOp27, Table B2, cells arrested by Ponasterone A, 72 hours, read-out: −log EC50 RKO p27 or p21 induced (arrested) (converted). The procedure:
(§1) To determine the cell cycle specific mode of action, subclones of RKO colon adenocarcinoma cells (RKOp21 or RKOp27 as described by Schmidt et al. in Oncogene 19, 2423-2429; 2000) are seeded into 96 well flat bottom plates at a density of 16000 cells per well in a volume of 50 μl per well in DMEM growth medium with 10% FCS containing 10 μM Ponasterone A. 24 hours after seeding the 50 μl each of the compound dilutions in DMEM medium are added into each well of the 96-well plate. Each compound dilution is tested as triplicates. Wells containing untreated control cells are filled with 50 μl DMEM medium containing 1% DMSO. The cells are then incubated with the substances for 72 hours at 37° C. in a humidified atmosphere containing 5% carbon dioxide. To determine the viability of the cells, 10 μl of an Alamar Blue solution (Biosource) are added and the fluorescence is measured at an extinction of 544 nm and an emission of 590 nm. For the calculation of the cell viability the emission value from untreated cells is set as 100% viability and the emission rates of treated cells are set in relation to the values of untreated cells. Viabilities are expressed as % values. The Graphpad Prism program (GraphPad Software, Inc) is used for the calculation of EC50 values out of the obtained dose-response curves. Viability is compared of proliferating cells grown in the absence of the inducer Ponasterone A, versus viability of cells arrested by the expression of ectopic p27Kip1 induced by Ponasterone A.
(§2) Representative values for anti-proliferation/cytotoxicity [measured as −log EC50 (mol/l)] determined in the aforementioned assays follow from the following tables B1, B2 and B3, in which the numbers of the compounds correspond to the numbers of the examples.
For orientation: Resazurin is reduced to fluorescent resorufin, in cell work by metabolically active cells.

Test [2] relates to RKO p27 or p21 uninduced (proliferating) colon adenocarcinoma cells. Put plainly: Alamar Blue cell viability assay, RKO p27 or p21 uninduced (proliferating). Conditions: Homo sapiens, RKOp27, 72 h, Table B2, anti-proliferative/cytotoxic activity, read-out: −log EC50 RKO p27 or p21 uninduced (proliferating) (converted). Format: cell-based. As to the method:
The anti-proliferative/cytotoxic activity of the compounds described herein can be tested on subclones of RKO human colon adenocarcinoma cells (Schmidt et al., Oncogene 19, 2423-2429; 2000) using the Alamar Blue cell viability assay (described in O'Brien et al. Eur J Biochem 267, 5421-5426, 2000). The compounds are dissolved as 10 mM solutions in DMSO and subsequently diluted in semi-logarithmic steps. DMSO dilutions are further diluted 1:100 into Dulbecco's modified Eagle's medium (DMEM) containing 10% fetal calf serum to a final concentration twice as much as the final concentration in the test. RKO subclones are seeded into 96 well flat bottom plates at a density of 4000 cells per well in a volume of 50 μl per well. 24 hours after seeding the 50 μl each of the compound dilutions in DMEM medium are added into each well of the 96 well plate. Each compound dilution is tested as triplicates. Wells containing untreated control cells are filled with 50 μl DMEM medium containing 1% DMSO. The cells are then incubated with the substances for 72 hours at 37° C. in a humidified atmosphere containing 5% carbon dioxide. To determine the viability of the cells, 10 μl of an Alamar Blue solution (Biosource) are added and the fluorescence is measured at an extinction of 544 nm and an emission of 590 nm. For the calculation of the cell viability the emission value from untreated cells is set as 100% viability and the emission rates of treated cells are set in relation to the values of untreated cells. Viabilities are expressed as % values. The Graphpad Prism program is used for the calculation of EC50 values for anti-proliferative/cytotoxic activity out of the obtained dose-response curves.
as §1, §2

As a reminder, the EC50 is the concentration at which the effect is half-maximal. In the case of `COc1ccc2[nH]c3c(c2c1)C[C@@]1(C)C(=O)N(CCN2CCCCC2)C(=O)N1[C@@H]3c1cccc(O)c1` (racemic) [Example 71, (3aSR,10RS)-10-(3-Hydroxy-phenyl)-6-methoxy-3a-methyl-2-(2-piperidin-1-yl-ethyl)-3a,4,9,10-tetrahydro-2,9,10a-triaza-cyclopenta[b]fluorene-1,3-dione], the concentration giving a half-maximal response (EC50) in test [1] was not below 3160 nM; in test [2] it was not above 39.8 nM.
Turning to `COCCNCCN1C(=O)N2[C@H](c3cccc(O)c3)c3[nH]c4ccc(Cl)cc4c3C[C@@]2(C)C1=O` (racemic) [Example 128, (3aSR,10RS)-6-Chloro-10-(3-hydroxy-phenyl)-2-[2-(2-methoxy-ethylamino)-ethyl]-3a-methyl-3a,4,9,10-tetrahydro-2,9,10a-triaza-cyclopenta[b]fluorene-1,3-dione], the values for the EC50 in test [1] and in test [2] were not below 316 nM and not above 39.8 nM, respectively.
`COc1ccc2[nH]c3c(c2c1)C[C@@]1(C)C(=O)N(CCCN2CCC2)C(=O)N1[C@@H]3c1cccc(O)c1` (racemic) [Example 87, (3aSR,10RS)-2-(3-Azetidin-1-yl-propyl)-10-(3-hydroxy-phenyl)-6-methoxy-3a-methyl-3a,4,9,10-tetrahydro-2,9,10a-triaza-cyclopenta[b]fluorene-1,3-dione]: the concentration giving a half-maximal response (EC50) in test [1] is not below 3160 nM; in test [2], not above 39.8 nM.
Turning to `C=CCNCCN1C(=O)N2[C@H](c3cccc(O)c3)c3[nH]c4ccc(Cl)cc4c3C[C@@]2(C)C1=O` (racemic) [Example 115, (3aSR,10RS)-2-(2-Allylamino-ethyl)-6-chloro-10-(3-hydroxy-phenyl)-3a-methyl-3a,4,9,10-tetrahydro-2,9,10a-triaza-cyclopenta[b]fluorene-1,3-dione], the 50% effective concentration (EC50) in test [1] is not below 316 nM; in test [2], not above 39.8 nM.
Taken in the same sequence, the figures for `C[C@@]12Cc3c([nH]c4ccc(Cl)cc34)[C@@H](c3cccc(O)c3)N1C(=O)N(CCN1CC=CCC1)C2=O` (racemic) [Example 100, (3aSR,10RS)-6-Chloro-2-[2-(3,6-dihydro-2H-pyridin-1-yl)-ethyl]-10-(3-hydroxy-phenyl)-3a-methyl-3a,4,9,10-tetrahydro-2,9,10a-triaza-cyclopenta[b]fluorene-1,3-dione] were not below 3160 nM and not above 39.8 nM.
For the molecule `COc1ccc2[nH]c3c(c2c1)C[C@@]1(C)C(=O)N(CCCNCC(C)C)C(=O)N1[C@@H]3c1cccc(O)c1` (racemic) [Example 92, (3aSR,10RS)-10-(3-Hydroxy-phenyl)-2-(3-isobutylamino-propyl)-6-methoxy-3a-methyl-3a,4,9,10-tetrahydro-2,9,10a-triaza-cyclopenta[b]fluorene-1,3-dione], the figures for the EC50 in test [1] and in test [2] were not below 3160 nM and not above 39.8 nM, respectively.
For `CCNCCCN1C(=O)N2[C@H](c3cccc(O)c3)c3[nH]c4ccc(Cl)cc4c3C[C@@]2(C)C1=O` (racemic) [Example 131, (3aSR,10RS)-6-Chloro-2-(3-ethylamino-propyl)-10-(3-hydroxy-phenyl)-3a-methyl-3a,4,9,10-tetrahydro-2,9,10a-triaza-cyclopenta[b]fluorene-1,3-dione], the figures for the EC50 in test [1] and in test [2] were not below 316 nM and not above 39.8 nM, respectively.
On to `COc1ccc2[nH]c3c(c2c1)C[C@@]1(C)C(=O)N(CCCN2CCOCC2)C(=O)N1[C@@H]3c1cccc(O)c1` (racemic) [Example 148, (3aSR,10RS)-10-(3-Hydroxy-phenyl)-6-methoxy-3a-methyl-2-(3-morpholin-4-yl-propyl)-3a,4,9,10-tetrahydro-2,9,10a-triaza-cyclopenta[b]fluorene-1,3-dione], for which the EC50 was not below 316 nM in test [1] and not above 39.8 nM in test [2].
On the same counts, the results for `CC(C)CNCCCN1C(=O)N2[C@H](c3cccc(O)c3)c3[nH]c4ccc(Cl)cc4c3C[C@@]2(C)C1=O` (racemic) [Example 135, (3aSR,10RS)-6-Chloro-10-(3-hydroxy-phenyl)-2-(3-isobutylamino-propyl)-3a-methyl-3a,4,9,10-tetrahydro-2,9,10a-triaza-cyclopenta[b]fluorene-1,3-dione] are not below 3160 nM and not above 39.8 nM.
In the case of `COc1ccc2[nH]c3c(c2c1)C[C@@]1(C)C(=O)N(CCNCCO)C(=O)N1[C@@H]3c1cccc(O)c1` (racemic) [Example 82, (3aSR,10RS)-2-[2-(2-Hydroxy-ethylamino)-ethyl]-10-(3-hydroxy-phenyl)-6-methoxy-3a-methyl-3a,4,9,10-tetrahydro-2,9,10a-triaza-cyclopenta[b]fluorene-1,3-dione], the EC50 in test [1] was not below 3160 nM; in test [2], not above 39.8 nM.
`CCN(C)CCCN1C(=O)N2[C@H](c3cccc(O)c3)c3[nH]c4ccc(OC)cc4c3C[C@@]2(C)C1=O` (racemic) [Example 77, (3aSR,10RS)-2-[3-(Ethyl-methyl-amino)-propyl]-10-(3-hydroxy-phenyl)-6-methoxy-3a-methyl-3a,4,9,10-tetrahydro-2,9,10a-triaza-cyclopenta[b]fluorene-1,3-dione]: the half-maximal effective concentration (EC50) is not below 3160 nM in test [1] and not above 39.8 nM in test [2].
On the same counts, the results for `CC(C)CNCCN1C(=O)N2[C@H](c3cccc(O)c3)c3[nH]c4ccc(Cl)cc4c3C[C@@]2(C)C1=O` (racemic) [Example 99, (3aSR,10RS)-6-Chloro-10-(3-hydroxy-phenyl)-2-(2-isobutylamino-ethyl)-3a-methyl-3a,4,9,10-tetrahydro-2,9,10a-triaza-cyclopenta[b]fluorene-1,3-dione] are not below 3160 nM and not above 39.8 nM.
For `C[C@@]12Cc3c([nH]c4ccc(Cl)cc34)[C@@H](c3cccc(O)c3)N1C(=O)N(CCNC1CCC1)C2=O` (racemic) [Example 103, (3aSR,10RS)-6-Chloro-2-(2-cyclobutylamino-ethyl)-10-(3-hydroxy-phenyl)-3a-methyl-3a,4,9,10-tetrahydro-2,9,10a-triaza-cyclopenta[b]fluorene-1,3-dione], the results for the EC50 in test [1] and in test [2] were not below 3160 nM and not above 39.8 nM, respectively.
Taken in the same sequence, the figures for `COc1ccc2[nH]c3c(c2c1)C[C@@]1(C)C(=O)N(CCCN2CC=CC2)C(=O)N1[C@@H]3c1cccc(O)c1` (racemic) [Example 149, (3aSR,10RS)-2-[3-(2,5-Dihydro-pyrrol-1-yl)-propyl]-10-(3-hydroxy-phenyl)-6-methoxy-3a-methyl-3a,4,9,10-tetrahydro-2,9,10a-triaza-cyclopenta[b]fluorene-1,3-dione] were not below 316 nM and not above 39.8 nM.
Consider `COc1ccc2[nH]c3c(c2c1)C[C@@]1(C)C(=O)N(CCCNCC(F)F)C(=O)N1[C@@H]3c1cccc(O)c1` (racemic) [Example 142, (3aSR,10RS)-2-[3-(2,2-Difluoro-ethylamino)-propyl]-10-(3-hydroxy-phenyl)-6-methoxy-3a-methyl-3a,4,9,10-tetrahydro-2,9,10a-triaza-cyclopenta[b]fluorene-1,3-dione], for which the concentration giving a half-maximal response (EC50) in test [1] was not below 316 nM; in test [2], 39.8 to 251 nM.
For `CCN(CC)CCCN1C(=O)N2[C@H](c3cccc(O)c3)c3[nH]c4ccc(Cl)cc4c3C[C@@]2(C)C1=O` (racemic) [Example 137, (3aSR,10RS)-6-Chloro-2-(3-diethylamino-propyl)-10-(3-hydroxy-phenyl)-3a-methyl-3a,4,9,10-tetrahydro-2,9,10a-triaza-cyclopenta[b]fluorene-1,3-dione], the figures for the EC50 in test [1] and in test [2] were not below 3160 nM and not above 39.8 nM, respectively.
As for `C[C@@]12Cc3c([nH]c4ccc(Cl)cc34)[C@@H](c3cccc(O)c3)N1C(=O)N(CCN1CCOCC1)C2=O` (racemic) [Example 120, (3aSR,10RS)-6-Chloro-10-(3-hydroxy-phenyl)-3a-methyl-2-(2-morpholin-4-ylethyl)-3a,4,9,10-tetrahydro-2,9,10a-triaza-cyclopenta[b]fluorene-1,3-dione], the concentration giving a half-maximal response (EC50) in test [1] is not below 316 nM; in test [2], 39.8 to 251 nM.
